Results published in patent publication US4748232A, “Peptide production and use thereof” (Suntory Limited, priority 1983, dated 1988).

Tests used:
[1] = Solubility in solvents; assay type: physicochemical
[2] = Immunogenicity and toxicity on administration; assay type: in vivo
[3] = tested on: Male rats; test: Diuretic and natriuretic action in anesthetized rats (urine collected via bladder cannula); assay type: in vivo, rat; conditions: 1.21 μ mole, group V
Method: To keep the respiratory tract open, a tracheal cannula (PE-240 Clay-Adams) was inserted into the trachea. An arterial cannula (PE-50) was inserted into a femoral artery for measurement of the blood pressure, and a venous cannula was inserted into a femoral vein for the administration of Ringer's solution. 1.2 ml of Ringer's solution was injected for ten minutes, and subsequently, was constantly infused at a flow rate of 1.2 ml/hour.
A bladder cannula made of silastic tube with an inner diameter of 0.02 inches and an outer diameter of 0.037 inches was inserted into the bladder, and via the cannula, a urine sample was collected into a test tube. The collection of urine was carried out for 30 minutes before administration of the test compound, and every five minutes after the administration.
The control group (group I) was administered 50 μl of physiological saline containing only bacitracin.
Groups I to IV each consisted of three animals, and group V consisted of four animals.

Which Solubility in solvents ([1]; ethyl acetate, butyl acetate, ethyl ether, hexane, petroleum ether, benzene, and chloroform) does the source give for `CC[C@H](C)[C@@H]1NC(=O)[C@H](CCCNC(=N)N)NC(=O)[C@H](CC(=O)O)NC(=O)[C@H](CCSC)NC(=O)[C@H](CCCNC(=N)N)NC(=O)CNC(=O)CNC(=O)[C@H](Cc2ccccc2)NC(=O)[C@@H](NC(=O)[C@H](CO)NC(=O)[C@H](CO)NC(=O)[C@H](CCCNC(=N)N)NC(=O)[C@H](CCCNC(=N)N)NC(=O)[C@H](CC(C)C)NC(=O)[C@@H](N)CO)CSSC[C@@H](C(=O)N[C@@H](CC(N)=O)C(=O)N[C@@H](CO)C(=O)N[C@@H](Cc2ccccc2)C(=O)N[C@@H](CCCNC(=N)N)C(=O)N[C@@H](Cc2ccc(O)cc2)C(=O)O)NC(=O)CNC(=O)[C@H](CC(C)C)NC(=O)CNC(=O)[C@H](CO)NC(=O)[C@H](CCC(N)=O)NC(=O)[C@H](C)NC(=O)CNC1=O` [α-hANP, α-human atrial natriuretic polypeptide] here?
The Solubility in solvents was “insoluble”.

And the Solubility in solvents ([1]; methanol, and acetic acid)?
Its Solubility in solvents is “partially”.

And the Solubility in solvents ([1]; water)?
Its Solubility in solvents is “soluble”.

What about the toxicity ([2]; gradually hydrolized in a body providing the L-amino acids) of the same compound?
Its toxicity is “little toxicity”.

And the anaphylaxis shock ([2]; repeated administration)?
Its anaphylaxis shock is “does not cause anaphylaxis shock”.

What about the production of antibodies ([2]; repeated administration) of the same compound?
Its production of antibodies is “does not stimulate production of antibodies”.

Which “Urine volume A” value ([3]; A: sample collected 5 minutes after administration) does the source give for `NS(=O)(=O)c1cc(C(=O)O)c(NCc2ccco2)cc1Cl` [Furosemide, furosemide] here?
Its value is 167 ± 28 µL/min.

And the “Urine volume B” value ([3]; B: sample collected 30 minutes before administration)?
Its value is 8.6 ± 1.9 µL/min.
